Test results reported in patent US9993490B2, “Phosphonic acid compounds and screening method” (The Board of Trustees of The University of Illinois, priority 2014, dated 2018).

Tests used:
Escherichia coli WM6242 = assay: Growth inhibition in liquid culture; format: cell-based; conditions: upon induction of phosphonate uptake machinery (1 mM IPTG); 100 ug ml^-1
Description: (§1) Antibiotic activity for purified PnPs was examined by growth inhibition in liquid cultures. Salmonella typhimurium LT2, Escherichia coli WM6242 (±1 mM IPTG), and Pseudomonas aeruginosa K were grown in M9-glucose. Bacillus subtilis subsp. spizizenii ATCC 6633, Staphylococcus aureus ATCC 25923, and Mycobacterium smegmatis NRRL B-14616 (37° C.) were cultivated in R2A. 96-Well plates containing 150 μL of media was inoculated with 1.5 uL of the appropriate cultures (OD600=0.4-0.5). Kanamycin, aminomethylphosphonate, 1-hydroxy-2-aminoethylphosphonate, (R)-2,3-dihydroxypropylphosphonate, argolaphos A, and argolaphos B were added to a final concentration of 100 ug ml^−1. After growth for 16 hours (24 for M. smegmatis) in a shaking incubator (200 rpm), cell densities recorded on a Tecan microplate reader.

[1] = Stability in the course of purification; format: physicochemical; conditions: fraction 2 of S. durhamensis NRRL B-3309 extract
Description: The liquid was concentrated to dryness and dissolved in 200 mL of 0.1% aqueous acetic acid, which was then applied to a 100 mL Fe(III) IMAC gravity column. Before sample loading the column was equilibrated with 0.1% acetic acid. After sample loading, the column was washed successively with 5 volumes of 0.1% acetic acid and 0.1% acetic acid in 20% acetonitrile (ACN). The materials were eluted from the column with 100 mM aqueous NH4HCO3. The eluate (200 mL) from the iron IMAC column was dried with a rotary evaporator as fraction 1. The unabsorbed sample was also dried as fraction 2.

[2] = tested on: Mycobacterium smegmatis NRRL B-14616; assay: Growth inhibition in liquid culture; format: cell-based; conditions: 100 ug ml^-1, R2A, 37° C., 24 hours
Description: as §1

## NCC(O)OP(=O)(O)O (stereo not drawn) [Compound 11, 1-hydroxy-2-aminoethylphosphoric acid]
Escherichia coli WM6242
  antibiotic activity against E. coli: effective antibiotic

## cyclic 2,3-dihydroxypropanoic acid [Compound 6]
[1]
  stability during purification: unstable and easily decomposed

## O=P(O)(O)C[C@H](O)CO [Compound 4, (R)-2,3-dihydroxypropylphosphonic acid]
[2]
  growth inhibition of Mycobacterium smegmatis: slightly inhibited growth
